Laboratory results reported in patent publication US10039753B2, “Imidazo[4,5-c]quinoline and imidazo[4,5-c][1,5]naphthyridine derivatives as LRRK2 inhibitors” (Pfizer Inc., priority 2015, dated 2018).
pIC50: −log10 of the molar value. Structures can show the parent of a compound that is named as a salt.

Assays:
[1] = molecular target: T1, GST-tagged truncated LRRK2 (Homo sapiens, UniProt Q5S007); assay: LRRK2 Assay, Format 1 (Lantha Screen), WT; assay type: biochemical; conditions: for pIC50: Format 1, wild-type LRRK2, geometric mean of 2-4 determinations unless footnoted (a: ≥5 determinations; b: single determination; c: determined on trifluoroacetate salt)
T1 construct: GST-tagged truncated LRRK2 from Invitrogen (Cat # PV4874); GST; purchased Invitrogen PV4874
Method: LRRK2 kinase activity was measured using Lantha Screen technology from Invitrogen. GST-tagged truncated LRRK2 from Invitrogen (Cat # PV4874) was incubated with a fluorescein-labeled peptide substrate based upon ezrin/radixin/moesin (ERM), also known as LRRKtide (Invitrogen cat # PR8976A), in the presence of a dose response of compound. Upon completion, the assay was stopped and detected with a terbium labeled anti-phospho-ERM antibody (Invitrogen, cat # PR8975A). […] Aliquots (3.5 μL) of the 100% DMSO dose response were mixed with 46.5 μL water then 1 μL of this mixture was added to the 3 μL substrate mix in the 384-well plate. The kinase reaction was started with 3 μL of a working solution of LRRK2 enzyme at a concentration of 4 μg/mL. […] The reaction was allowed to progress at room temperature for two hours and then stopped with the addition of 7 μL of detection buffer (20 mM Tris pH 7.6, 0.01% NP-40, 0.02% NaN3, 6 mM EDTA with 2 nM terbium labeled anti-phospho-ERM).

mutant G2019S LRRK2 = mutant G2019S LRRK2 (Homo sapiens, UniProt Q5S007, G2019S); assay: LRRK2 Assay, Format 1 (Lantha Screen), G2019S mutant
Sequence of mutant G2019S LRRK2 (Q5S007 970-2527 G2019S limits assumed): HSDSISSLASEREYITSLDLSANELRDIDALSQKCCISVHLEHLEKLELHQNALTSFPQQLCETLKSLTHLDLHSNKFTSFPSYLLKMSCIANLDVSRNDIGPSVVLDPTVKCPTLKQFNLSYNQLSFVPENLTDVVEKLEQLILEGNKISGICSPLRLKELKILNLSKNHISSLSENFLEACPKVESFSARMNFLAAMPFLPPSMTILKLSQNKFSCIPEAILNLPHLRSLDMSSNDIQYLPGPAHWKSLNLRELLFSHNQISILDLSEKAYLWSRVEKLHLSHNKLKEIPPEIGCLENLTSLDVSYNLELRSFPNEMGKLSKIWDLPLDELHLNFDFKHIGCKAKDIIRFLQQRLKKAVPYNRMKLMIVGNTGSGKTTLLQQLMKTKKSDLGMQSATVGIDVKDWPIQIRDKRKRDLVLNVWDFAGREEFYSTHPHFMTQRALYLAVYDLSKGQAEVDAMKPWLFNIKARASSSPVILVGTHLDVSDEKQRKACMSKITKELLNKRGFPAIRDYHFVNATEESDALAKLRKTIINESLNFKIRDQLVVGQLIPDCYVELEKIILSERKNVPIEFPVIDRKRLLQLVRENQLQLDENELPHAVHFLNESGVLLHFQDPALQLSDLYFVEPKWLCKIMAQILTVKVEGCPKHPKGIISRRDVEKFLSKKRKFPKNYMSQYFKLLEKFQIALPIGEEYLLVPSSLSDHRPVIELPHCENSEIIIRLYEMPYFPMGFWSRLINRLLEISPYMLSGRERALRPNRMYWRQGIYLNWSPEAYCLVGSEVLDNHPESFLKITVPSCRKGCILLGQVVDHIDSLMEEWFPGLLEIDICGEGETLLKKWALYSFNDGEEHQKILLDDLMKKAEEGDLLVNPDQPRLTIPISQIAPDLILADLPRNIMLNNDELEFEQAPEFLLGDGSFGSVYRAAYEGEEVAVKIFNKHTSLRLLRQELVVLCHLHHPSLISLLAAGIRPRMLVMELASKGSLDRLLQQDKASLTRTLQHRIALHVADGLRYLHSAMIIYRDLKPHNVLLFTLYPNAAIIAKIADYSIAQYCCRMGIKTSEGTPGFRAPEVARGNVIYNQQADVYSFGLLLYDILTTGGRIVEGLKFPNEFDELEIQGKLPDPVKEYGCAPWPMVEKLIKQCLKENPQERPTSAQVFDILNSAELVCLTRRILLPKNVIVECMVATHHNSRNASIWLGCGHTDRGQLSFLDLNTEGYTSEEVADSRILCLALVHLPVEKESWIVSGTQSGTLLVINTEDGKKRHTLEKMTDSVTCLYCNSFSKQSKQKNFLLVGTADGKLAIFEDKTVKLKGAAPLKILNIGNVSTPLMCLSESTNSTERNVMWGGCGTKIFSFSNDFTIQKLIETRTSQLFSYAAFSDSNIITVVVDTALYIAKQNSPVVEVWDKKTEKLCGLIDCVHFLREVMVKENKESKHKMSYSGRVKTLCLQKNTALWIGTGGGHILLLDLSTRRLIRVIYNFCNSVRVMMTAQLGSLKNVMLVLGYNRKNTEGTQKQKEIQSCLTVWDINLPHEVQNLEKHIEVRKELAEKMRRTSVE

T1 sequence (Q5S007 970-2527 limits assumed): as the sequence (Q5S007 970-2527 G2019S limits assumed) above, with S1050G counted along it

| SMILES | pIC50 [1] | pIC50 (mutant G2019S LRRK2) | LRRK2 potency compared to Example 5 (its enantiomer) ([1]; qualitative statement referring to Table 3 data) |
| --- | --- | --- | --- |
| CC(C)(O)c1cn(Cc2nc3cnc4ccccc4c3n2C2CCOCC2)nn1 [Example 40, 2-(1-{[1-(tetrahydro-2H-pyran-4-yl)-1H-imidazo[4,5-c]quinolin-2-yl]methyl}-1H-1,2,3-triazol-4-yl)propan-2-ol] | 6.85 | 6.92 |  |
| c1ccc2c(c1)ncc1nc(Cn3nnc4ccccc43)n(C3CCOCC3)c12 [Example 41, 2-(1H-benzotriazol-1-ylmethyl)-1-(tetrahydro-2H-pyran-4-yl)-1H-imidazo[4,5-c]quinoline] | 6.91 | 7.03 |  |
| c1ccc2c(c1)ncc1nc(Cn3cc(C4CC4)nn3)n(C3CCOCC3)c12 [Example 42, 2-[(4-cyclopropyl-1H-1,2,3-triazol-1-yl)methyl]-1-(tetrahydro-2H-pyran-4-yl)-1H-imidazo[4,5-c]quinoline] | 7.29 | 7.25 |  |
| FC(F)(F)c1cnn(Cc2nc3cnc4ccccc4c3n2C2CCOCC2)c1 [Example 43, 1-(tetrahydro-2H-pyran-4-yl)-2-{[4-(trifluoromethyl)-1H-pyrazol-1-yl]methyl}-1H-imidazo[4,5-c]quinoline] | 6.92 | 6.96 |  |
| CC(C)c1cn(Cc2nc3cnc4ccccc4c3n2C2CCOCC2)nn1 [Example 44, 2-{[4-(propan-2-yl)-1H-1,2,3-triazol-1-yl]methyl}-1-(tetrahydro-2H-pyran-4-yl)-1H-imidazo[4,5-c]quinoline] | 7.20 | 7.14 |  |
| c1ccc2nn(Cc3nc4cnc5ccccc5c4n3C3CCOCC3)cc2c1 [Example 45, 2-(2H-indazol-2-ylmethyl)-1-(tetrahydro-2H-pyran-4-yl)-1H-imidazo[4,5-c]quinoline] | 7.21 | 7.28 |  |
| FC1(F)CCCCC1n1c(Cc2ccon2)nc2cnc3ccccc3c21 (stereo not shown) [Example 46, 1-(2,2-difluorocyclohexyl)-2-(1,2-oxazol-3-ylmethyl)-1H-imidazo[4,5-c]quinoline] | 6.73 | 7.04 |  |
| CC1(C)CC(n2c(Cc3ccon3)nc3cnc4ccccc4c32)CCO1 (stereo not shown) [Example 47, 1-(2,2-dimethyltetrahydro-2H-pyran-4-yl)-2-(1,2-oxazol-3-ylmethyl)-1H-imidazo[4,5-c]quinoline] | 6.99 | 7.09 |  |
| FC1(F)CCC(n2c(Cc3ccon3)nc3cnc4ccccc4c32)CC1 [Example 48, 1-(4,4-difluorocyclohexyl)-2-(1,2-oxazol-3-ylmethyl)-1H-imidazo[4,5-c]quinoline] | 6.71 | 6.93 |  |
| c1ccc2c(c1)ncc1nc(Cc3ccon3)n(C3CCCCC3)c12 [Example 50, 1-cyclohexyl-2-(1,2-oxazol-3-ylmethyl)-1H-imidazo[4,5-c]quinoline] | 6.90 | 7.24 |  |
| Cc1nc(Cc2nc3cnc4ccc(Cl)cc4c3n2[C@H]2CCO[C@@H](C)C2)no1 [Example 51, 8-chloro-2-[(5-methyl-1,2,4-oxadiazol-3-yl)methyl]-1-[(2S,4S)-2-methyltetrahydro-2H-pyran-4-yl]-1H-imidazo[4,5-c]quinoline] | 6.96 | 7.31 | significantly less potent |
| C[C@@H]1C[C@H](n2c(Cc3ccon3)nc3cnc4ccc(Cl)cc4c32)CCO1 [Example 52, 8-chloro-1-[(2R,4R)-2-methyltetrahydro-2H-pyran-4-yl]-2-(1,2-oxazol-3-ylmethyl)-1H-imidazo[4,5-c]quinoline] | 8.39 | 8.57 |  |
| C[C@@H]1C[C@H](n2c(Cc3cscn3)nc3cnc4ccc(Cl)cc4c32)CCO1 [Example 53, 8-chloro-1-[(2R,4R)-2-methyltetrahydro-2H-pyran-4-yl]-2-(1,3-thiazol-4-ylmethyl)-1H-imidazo[4,5-c]quinoline] | 8.51 | 8.72 |  |
| C[C@@H]1C[C@H](n2c(Cc3ccon3)nc3cnc4ccc(F)cc4c32)CCO1 [Example 54, 8-fluoro-1-[(2R,4R)-2-methyltetrahydro-2H-pyran-4-yl]-2-(1,2-oxazol-3-ylmethyl)-1H-imidazo[4,5-c]quinoline] | 8.06 | 8.10 |  |
| C[C@@H]1C[C@H](n2c(Cc3cscn3)nc3cnc4ccc(C#N)cc4c32)CCO1 [Example 57, 1-[(2R,4R)-2-methyltetrahydro-2H-pyran-4-yl]-2-(1,3-thiazol-4-ylmethyl)-1H-imidazo[4,5-c]quinoline-8-carbonitrile] | 8.21 | 8.40 |  |
| C[C@@H]1C[C@H](n2c(Cc3ccon3)nc3cnc4ccc(Br)cc4c32)C[C@H](C)O1 [Example 59, 8-bromo-1-[(2R,4r,6S)-2,6-dimethyltetrahydro-2H-pyran-4-yl]-2-(1,2-oxazol-3-ylmethyl)-1H-imidazo[4,5-c]quinoline] | 6.75 | 7.28 |  |
| C[C@@H]1C[C@H](n2c(Cc3cscn3)nc3cnc4ccc(Br)cc4c32)C[C@H](C)O1 [Example 60] | 7.45 | 7.94 |  |
| C[C@@H]1C[C@H](n2c(Cc3cscn3)nc3cnc4ccc(C#N)cc4c32)C[C@H](C)O1 [Example 61, 1-[(2R,4r,6S)-2,6-dimethyltetrahydro-2H-pyran-4-yl]-2-(1,3-thiazol-4-ylmethyl)-1H-imidazo[4,5-c]quinoline-8-carbonitrile] | 6.74 | 7.17 |  |
| COc1ccc2ncc3nc(Cc4ccon4)n([C@@H]4CCO[C@H](C)C4)c3c2c1 [Example 62, 8-methoxy-1-[(2R,4R)-2-methyltetrahydro-2H-pyran-4-yl]-2-(1,2-oxazol-3-ylmethyl)-1H-imidazo[4,5-c]quinoline] | 7.38 | 7.89 |  |
| Clc1ccc2ncc3nc(Cc4ccon4)n(C4CCOCC4)c3c2c1 [Example 63, 8-chloro-2-(1,2-oxazol-3-ylmethyl)-1-(tetrahydro-2H-pyran-4-yl)-1H-imidazo[4,5-c]quinoline, formate salt] | 7.79 | 7.92 |  |
| CC[C@@H]1C[C@H](n2c(Cc3ccon3)nc3cnc4ccc(C#N)cc4c32)CCO1 [Example 67, 1-[(2R,4R)-2-ethyltetrahydro-2H-pyran-4-yl]-2-(1,2-oxazol-3-ylmethyl)-1H-imidazo[4,5-c]quinoline-8-carbonitrile] | 8.24 | 8.40 |  |
| C[C@@H]1C[C@H](n2c(Cc3ccon3)nc3cnc4cccnc4c32)CCO1 [Example 68, 1-[(2R,4R)-2-methyltetrahydro-2H-pyran-4-yl]-2-(1,2-oxazol-3-ylmethyl)-1H-imidazo[4,5-c][1,5]naphthyridine] | 7.63 | 7.72 |  |
| c1ccc2c(c1)ncc1nc(Cc3cn4ncsc4n3)n(C3CCOCC3)c12 [Example 69, 2-(imidazo[2,1-b][1,3,4]thiadiazol-6-ylmethyl)-1-(tetrahydro-2H-pyran-4-yl)-1H-imidazo[4,5-c]quinoline] | 7.11 | 7.08 |  |
| COc1ccc(Cc2nc3cnc4ccc(F)cc4c3n2C2CCOC(C)(C)C2)nc1 (stereo not shown) [Example 70, 1-(2,2-dimethyltetrahydro-2H-pyran-4-yl)-8-fluoro-2-[(5-methoxypyridin-2-yl)methyl]-1H-imidazo[4,5-c]quinoline] | 7.11 | 7.18 |  |
| Clc1cn2cc(Cc3nc4cnc5ccccc5c4n3C3CCOCC3)nc2s1 [Example 71, 2-[(2-chloroimidazo[2,1-b][1,3]thiazol-6-yl)methyl]-1-(tetrahydro-2H-pyran-4-yl)-1H-imidazo[4,5-c]quinoline, trifluoroacetate salt] | 6.97 | 6.92 |  |
| CC1(C)CC(n2c(Cc3cscn3)nc3cnc4ccccc4c32)CCO1 (stereo not shown) [Example 72, 1-(2,2-dimethyltetrahydro-2H-pyran-4-yl)-2-(1,3-thiazol-4-ylmethyl)-1H-imidazo[4,5-c]quinoline, trifluoroacetate salt] | 6.81 | 6.77 |  |
| CC1(C)CC(n2c(Cc3cn4ncsc4n3)nc3cnc4ccccc4c32)CCO1 (stereo not shown) [Example 73, 1-(2,2-dimethyltetrahydro-2H-pyran-4-yl)-2-(imidazo[2,1-b][1,3,4]thiadiazol-6-ylmethyl)-1H-imidazo[4,5-c]quinoline, trifluoroacetate salt] | 7.12 | 7.01 |  |
| Fc1ccc2ncc3nc(Cn4cc(C(F)(F)F)nn4)n(C4CCOCC4)c3c2c1 [Example 74, 8-fluoro-1-(tetrahydro-2H-pyran-4-yl)-2-{[4-(trifluoromethyl)-1H-1,2,3-triazol-1-yl]methyl}-1H-imidazo[4,5-c]quinoline, trifluoroacetate salt] | 6.95 | 6.99 |  |
| Fc1ccc2ncc3nc(Cc4ccon4)n(C4CCOCC4)c3c2c1 [Example 75, 8-fluoro-2-(1,2-oxazol-3-ylmethyl)-1-(tetrahydro-2H-pyran-4-yl)-1H-imidazo[4,5-c]quinoline, trifluoroacetate salt] | 6.89 | 6.81 |  |
| Fc1ccc2ncc3nc(Cn4cc5ccccc5n4)n(C4CCOCC4)c3c2c1 [Example 76, 8-fluoro-2-(2H-indazol-2-ylmethyl)-1-(tetrahydro-2H-pyran-4-yl)-1H-imidazo[4,5-c]quinoline, trifluoroacetate salt] | 7.17 | 7.26 |  |
